# In US9834542B2, “LXR modulators” (BRISTOL-MYERS SQUIBB COMPANY, priority 2013, dated 2017):
# Biological target: T1, LXRβ (Homo sapiens, UniProt P55055)
# T1 construct: Co-transfection expression plasmids, comprising full-length LXRα (pCMX-h LXRα[…] or LXRβ (pCMX-hLXRβ)); expressed in transfected cells; host or cells: CV-1 African Green Monkey Kidney Cells
# T1 sequence (P55055 1-460): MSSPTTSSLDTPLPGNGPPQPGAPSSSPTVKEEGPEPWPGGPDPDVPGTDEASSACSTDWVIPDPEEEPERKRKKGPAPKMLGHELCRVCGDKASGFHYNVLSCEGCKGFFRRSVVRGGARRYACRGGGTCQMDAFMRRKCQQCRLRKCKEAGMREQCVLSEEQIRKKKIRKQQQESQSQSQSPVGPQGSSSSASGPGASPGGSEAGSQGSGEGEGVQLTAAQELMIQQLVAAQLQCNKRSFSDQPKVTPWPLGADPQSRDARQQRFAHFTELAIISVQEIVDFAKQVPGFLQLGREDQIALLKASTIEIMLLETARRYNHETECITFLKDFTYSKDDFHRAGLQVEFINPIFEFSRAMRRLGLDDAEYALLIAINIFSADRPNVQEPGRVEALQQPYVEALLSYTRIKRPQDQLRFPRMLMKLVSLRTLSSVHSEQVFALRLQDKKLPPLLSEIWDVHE
# T1 sequence (P19793 1-462 partner): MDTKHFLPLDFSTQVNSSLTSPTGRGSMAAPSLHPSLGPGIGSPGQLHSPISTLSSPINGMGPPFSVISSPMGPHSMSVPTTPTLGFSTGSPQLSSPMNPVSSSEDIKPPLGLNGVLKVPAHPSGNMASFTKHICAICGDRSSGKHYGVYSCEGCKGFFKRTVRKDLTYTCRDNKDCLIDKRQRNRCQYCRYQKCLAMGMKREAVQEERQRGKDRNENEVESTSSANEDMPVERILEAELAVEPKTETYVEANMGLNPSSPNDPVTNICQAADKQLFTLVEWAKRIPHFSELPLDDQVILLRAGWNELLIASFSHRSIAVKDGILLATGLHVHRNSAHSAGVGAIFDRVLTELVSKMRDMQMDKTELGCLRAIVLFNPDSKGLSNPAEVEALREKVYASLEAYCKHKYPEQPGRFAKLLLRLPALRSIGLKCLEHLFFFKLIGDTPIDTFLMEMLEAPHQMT
# Assay: Co-transfection assay (LXRE luciferase reporter), LXRβ
# Type: cell-based
# Settings: for EC50: CV-1 cells transfected with pCMX-hLXRβ and LXREx1-Tk-Luciferase, 20 hours incubation; for Emax: LXRβ co-transfection, relative to high control 1-(2,4-difluorobenzyl)-2-oxo-6-(4-phenoxyphenyl)-4-(trifluoromethyl)-1,2-dihydropyridine-3-carbonitrile, read-out: % Efficacy
# Outline: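 Cell-based LXRβ agonism measured as LXRE-luciferase induction in transiently transfected CV-1 cells after 20 h treatment. Potency is the curve-fit EC50; efficacy is expressed as percent of a full-agonist control's maximal response.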
SMILES,EC50 [nM],Emax [%]
"Cc1nc(C(F)(F)F)cn1-c1ccc(-c2cccc(S(C)(=O)=O)c2)cc1-c1nc(C(F)(F)F)cn1-c1ccc(Cl)cc1 [Example 644, 1-(4-chlorophenyl)-2-(4-(2-methyl-4-(trifluoromethyl)-1H-imidazol-1-yl)-3′-(methylsulfonyl)biphenyl-3-yl)-4-(trifluoromethyl)-1H-imidazole]",408,37
"Cc1nc(-c2cc(-c3cc(F)c(CO)c(S(C)(=O)=O)c3)ccc2-n2cc(C(F)(F)F)nc2C)c(-c2cc(F)cc(Cl)c2)o1 [Example 450, (3′-(5-(3-chloro-5-fluorophenyl)-2-methyloxazol-4-yl)-3-fluoro-4′-(2-methyl-4-(trifluoromethyl)-1H-imidazol-1-yl)-5-(methylsulfonyl)biphenyl-4-yl)methanol]",45,49
"Cc1nc(C(F)(F)F)cn1-c1ccc(-c2cccc(S(C)(=O)=O)c2)cc1-n1nncc1-c1ccc(F)c(OC(F)(F)F)c1 [Example 46, 5-{4-fluoro-3-[(trifluoromethyl)oxy]phenyl}-1-{3′-(methylsulfonyl)-4-[2-methyl-4-(trifluoromethyl)-1H-imidazol-1-yl]biphenyl-3-yl}-1H-1,2,3-triazole]",2310,62
"Cc1nc(C(F)(F)F)cn1-c1ccc(-c2cccc(S(C)(=O)=O)c2)cc1-n1nncc1Cc1ccc(F)cc1 [Example 124, 5-[(4-fluorophenyl)methyl]-1-{3′-(methylsulfonyl)-4-[2-methyl-4-(trifluoromethyl)-1H-imidazol-1-yl]biphenyl-3-yl}-1H-1,2,3-triazole]",1160,64
"COc1ncc(-c2oc(C)nc2-c2cc(-c3cc(F)c(CO)c(S(C)(=O)=O)c3)ccc2-n2cc(C(F)(F)F)nc2C)cn1 [Example 415, (3-fluoro-3′-(5-(2-methoxypyrimidin-5-yl)-2-methyloxazol-4-yl)-4′-(2-methyl-4-(trifluoromethyl)-1H-imidazol-1-yl)-5-(methylsulfonyl)biphenyl-4-yl)methanol]",1500,86
"Cc1nc(C(F)(F)F)cn1-c1ccc(-c2cc(F)c(CO)c(S(C)(=O)=O)c2)cc1-n1nncc1-c1ccc(OC(F)(F)F)c(F)c1 [Example 56, {3-fluoro-3′-(5-{3-fluoro-4-[(trifluoromethyl)oxy]phenyl}-1H-1,2,3-triazol-1-yl)-5-(methylsulfonyl)-4′-[2-methyl-4-(trifluoromethyl)-1H-imidazol-1-yl]biphenyl-4-yl}methanol]",133,101
"Cc1nc(C(F)(F)F)cn1-c1c(F)cc(-c2cc(Cl)c(CO)c(S(C)(=O)=O)c2)cc1-n1nncc1-c1ccc(OC(F)(F)F)cc1 [Example 197, [3-chloro-3′-fluoro-5-(methylsulfonyl)-4′-[2-methyl-4-(trifluoromethyl)-1H-imidazol-1-yl]-5′-(5-{4-[(trifluoromethyl)oxy]phenyl}-1H-1,2,3-triazol-1-yl)biphenyl-4-yl]methanol]",252,76
"Cc1nc(C(F)(F)C(C)C)cn1-c1ccc(-c2cc(F)c(CO)c(S(C)(=O)=O)c2)cc1-n1nncc1-c1ccc(OC(F)(F)F)cc1 [Example 221, (4′-(4-(1,1-difluoro-2-methylpropyl)-2-methyl-1H-imidazol-1-yl)-3-fluoro-5-(methylsulfonyl)-3′-(5-(4-(trifluoromethoxy)phenyl)-1H-1,2,3-triazol-1-yl)-[1,1′-biphenyl]-4-yl)methanol]",111,69
"Cc1nc(C(F)(F)F)cn1-c1ccc(-c2cc(F)c(CO)c(S(C)(=O)=O)c2)cc1-n1nncc1C(C)c1ccc(Cl)cc1 (centres unmarked) [Example 109, (3′-{5-[1-(4-chlorophenyl)ethyl]-1H-1,2,3-triazol-1-yl}-3-fluoro-5-(methylsulfonyl)-4′-[2-methyl-4-(trifluoromethyl)-1H-imidazol-1-yl]biphenyl-4-yl)methanol]",111,53

# Further lines, results first:
EC50 [nM],Emax [%],SMILES
105,98,"Cc1nc(C(F)(F)F)cn1-c1ccc(-c2cc(F)c(CO)c(S(C)(=O)=O)c2)cc1-c1ocnc1-c1ccc(Cl)cc1 [Example 355, {3′-[4-(4-chlorophenyl)-1,3-oxazol-5-yl]-3-fluoro-5-(methylsulfonyl)-4′-[2-methyl-4-(trifluoromethyl)-1H-imidazol-1-yl]biphenyl-4-yl}methanol]"
17,77,"Cc1cc(-c2cc(-c3cc(F)c(CO)c(S(C)(=O)=O)c3)ccc2-n2cc(C(F)(F)F)nc2C)n(-c2ccc3c(c2)OC(F)(F)O3)n1 [Example 299, (3′-(1-(2,2-difluorobenzo[d][1,3]dioxol-5-yl)-3-methyl-1H-pyrazol-5-yl)-3-fluoro-4′-(2-methyl-4-(trifluoromethyl)-1H-imidazol-1-yl)-5-(methylsulfonyl)biphenyl-4-yl)methanol]"
155,73,"Cc1nc(-c2cc(-c3cc(F)cc(S(C)(=O)=O)c3)ccc2-n2cc(C(F)(F)F)nc2C)c(-c2ccc3c(c2)OC(F)(F)O3)o1 [Example 463, 5-(2,2-difluorobenzo[d][1,3]dioxol-5-yl)-4-(3′-fluoro-4-(2-methyl-4-(trifluoromethyl)-1H-imidazol-1-yl)-5′-(methylsulfonyl)biphenyl-3-yl)-2-methyloxazole]"
20,101,"CCc1nc(-c2ccc(OC(F)(F)F)cc2)c(-c2cc(-c3cc(F)c(CO)c(S(C)(=O)=O)c3)ccc2-n2cc(C(F)(F)F)nc2C)o1 [Example 600, {3′-(2-ethyl-4-{4-[(trifluoromethyl)oxy]phenyl}-1,3-oxazol-5-yl)-3-fluoro-5-(methylsulfonyl)-4′-[2-methyl-4-(trifluoromethyl)-1H-imidazol-1-yl]biphenyl-4-yl}methanol]"
143,79,"Cc1nc(C(F)(F)F)cn1-c1ccc(-c2cc(F)c(CO)c(S(C)(=O)=O)c2)cc1-c1nc(C(F)(F)F)cn1-c1ccc2c(c1)OC(F)(F)O2 [Example 638, (3′-(1-(2,2-difluorobenzo[d][1,3]dioxol-5-yl)-4-(trifluoromethyl)-1H-imidazol-2-yl)-3-fluoro-4′-(2-methyl-4-(trifluoromethyl)-1H-imidazol-1-yl)-5-(methylsulfonyl)biphenyl-4-yl)methanol]"
159,69,"Cc1nc(-c2cc(-c3cccc(S(C)(=O)=O)c3)ccc2-n2cc(C(F)(F)F)nc2C)c(-c2ccc(OCC3CC3)c(F)c2)o1 [Example 404, 5-(4-(cyclopropylmethoxy)-3-fluorophenyl)-2-methyl-4-(4-(2-methyl-4-(trifluoromethyl)-1H-imidazol-1-yl)-3′-(methylsulfonyl)biphenyl-3-yl)oxazole]"
661,100,"Cc1nc(C(F)(F)F)cn1-c1ccc(-c2cccc(S(C)(=O)=O)c2)cc1-c1nc(CC(=O)O)oc1-c1ccc(OC(F)(F)F)cc1 [Example 537, 2-(4-(4-(2-methyl-4-(trifluoromethyl)-1H-imidazol-1-yl)-3′-(methylsulfonyl)-[1,1′-biphenyl]-3-yl)-5-(4-(trifluoromethoxy)phenyl)oxazol-2-yl)acetic acid]"
164,57,"COCCc1nc(-c2cc(-c3cccc(S(C)(=O)=O)c3)ccc2-n2cc(C(F)(F)F)nc2C)c(-c2ccc(OC(F)(F)F)cc2)o1 [Example 564, 2-(2-methoxyethyl)-4-(4-(2-methyl-4-(trifluoromethyl)-1H-imidazol-1-yl)-3′-(methylsulfonyl)-[1,1′-biphenyl]-3-yl)-5-(4-(trifluoromethoxy)phenyl)oxazole]"
410,85,"Cc1nc(C(F)(F)F)cn1-c1ccc(-c2cccc(S(C)(=O)=O)c2)cc1-c1oc(CCO)nc1-c1ccc2c(c1)OC(F)(F)O2 [Example 622, 2-(4-(2,2-difluorobenzo[d][1,3]dioxol-5-yl)-5-(4-(2-methyl-4-(trifluoromethyl)-1H-imidazol-1-yl)-3′-(methylsulfonyl)-[1,1′-biphenyl]-3-yl)oxazol-2-yl)ethanol]"
257,94,"Cc1nc(C(F)(F)F)cn1-c1ccc(-c2cccc(S(C)(=O)=O)c2)cc1-c1oc(CC(=O)O)nc1-c1ccc(OC(F)(F)F)cc1 [Example 610, 2-(5-(4-(2-methyl-4-(trifluoromethyl)-1H-imidazol-1-yl)-3′-(methylsulfonyl)-[1,1′-biphenyl]-3-yl)-4-(4-(trifluoromethoxy)phenyl)oxazol-2-yl)acetic acid]"
